Molecular target: ALK2 (Homo sapiens (Human), UniProt Q04771)
Experiment: ALK2 inhibition, LanthaScreen Eu Kinase Binding Assay (ThermoFisher Scientific / Life Technologies)
Details: read-out: Measured Ki (IC50) Value for Compounds: IC50
Protocol: Biochemical assays to measure the inhibitory effects of the compounds were performed by ThermoFisher Scientific (Life Technologies). ALK2 inhibition was tested using LanthaScreen™ Eu Kinase Binding Assay screening protocol.

Sequence of ALK2 (Q04771 21-509): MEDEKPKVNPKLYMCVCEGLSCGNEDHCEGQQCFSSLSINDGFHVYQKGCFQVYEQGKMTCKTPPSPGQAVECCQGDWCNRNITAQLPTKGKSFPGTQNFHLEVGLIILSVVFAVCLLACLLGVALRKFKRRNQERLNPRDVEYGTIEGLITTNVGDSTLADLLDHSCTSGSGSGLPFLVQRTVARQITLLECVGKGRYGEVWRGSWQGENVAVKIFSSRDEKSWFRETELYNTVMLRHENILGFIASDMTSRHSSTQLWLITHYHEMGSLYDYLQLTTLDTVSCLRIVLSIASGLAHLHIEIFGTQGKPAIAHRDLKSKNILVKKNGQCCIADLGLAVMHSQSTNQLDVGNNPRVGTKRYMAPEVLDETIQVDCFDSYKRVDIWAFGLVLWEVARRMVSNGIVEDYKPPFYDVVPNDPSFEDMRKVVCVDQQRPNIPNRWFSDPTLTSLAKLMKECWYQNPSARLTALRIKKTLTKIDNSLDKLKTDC

| IC50 | SMILES |
| --- | --- |
| < 0.1 µM | OC[C@@H]1CCCN1c1nc(Nc2cn(-c3cnc4ccccc4c3)cn2)c2cccn2n1 [Compound 38c, (S)-(1-(4-((1-(quinolin-3-yl)-1H-imidazol-4-yl)amino)pyrrolo[2,1-f][1,2,4]triazin-2-yl)pyrrolidin-2-yl)methanol] |
| < 0.1 µM | OC[C@@H]1CCCN1c1nc(Nc2cn(-c3cccnc3)cn2)c2cccn2n1 [Compound 39c, (S)-(1-(4-((1-(pyridin-3-yl)-1H-imidazol-4-yl)amino)pyrrolo[2,1-f][1,2,4]triazin-2-yl)pyrrolidin-2-yl)methanol] |
| < 0.1 µM | c1ccc(C2CCCN2c2nc(Nc3cn(-c4ccccc4)cn3)c3occc3n2)cc1 (stereo not shown) [Compound 40a, N-(1-phenyl-1H-imidazol-4-yl)-2-(2-phenylpyrrolidin-1-yl)furo[3,2-d]pyrimidin-4-amine] |
| < 0.1 µM | Cc1csc2c(Nc3cn(-c4ccccc4)cn3)nc(N3CCC[C@H]3CO)nc12 [Compound 41c, (S)-(1-(7-methyl-4-((1-phenyl-1H-imidazol-4-yl)amino)thieno[3,2-d]pyrimidin-2-yl)pyrrolidin-2-yl)methanol] |
| < 0.1 µM | Cc1cc2nc(N3CCC[C@H]3CO)nc(Nc3cn(-c4ccc(F)cc4)cn3)c2s1 [Compound 42b, (S)-(1-(4-((1-(4-fluorophenyl)-1H-imidazol-4-yl)amino)-6-methylthieno[3,2-d]pyrimidin-2-yl)pyrrolidin-2-yl)methanol] |
| < 0.1 µM | OC[C@@H]1CCCN1c1nc(Nc2cn(C3CCC3)cn2)c2cccn2n1 [Compound 43a, (S)-(1-(4-((1-cyclobutyl-1H-imidazol-4-yl)amino)pyrrolo[2,1-f][1,2,4]triazin-2-yl)pyrrolidin-2-yl)methanol] |
| < 0.1 µM | OC[C@@H]1CCCN1c1nc(Nc2cn(-c3cccc(F)c3)cn2)c2cccn2n1 [Compound 44c, (S)-(1-(4-((1-(3-fluorophenyl)-1H-imidazol-4-yl)amino)pyrrolo[2,1-f][1,2,4]triazin-2-yl)pyrrolidin-2-yl)methanol] |
| 0.1 to 1 µM | COc1cc(F)c(CC(=O)N2CCN(c3nc(Nc4cn(-c5ccccc5)cn4)c4ccsc4n3)CC2)c(F)c1 [Compound 45d, 2-(2,6-difluoro-4-methoxyphenyl)-1-(4-(4-((1-phenyl-1H-imidazol-4-yl)amino)thieno[2,3-d]pyrimidin-2-yl)piperazin-1-yl)ethanone] |
| 0.1 to 1 µM | c1ccc([C@@H]2CCCN2c2nc(Nc3cn(C4CCCCC4)cn3)c3cccn3n2)cc1 [Compound 46a, (S)—N-(1-cyclohexyl-1H-imidazol-4-yl)-2-(2-phenylpyrrolidin-1-yl)pyrrolo[2,1-f][1,2,4]triazin-4-amine] |
| < 0.1 µM | CC(=O)c1cccc(-n2cnc(Nc3nc(N4CCC[C@H]4CO)nn4cccc34)c2)c1 [Compound 47c, (S)-1-(3-(4-((2-(2-(hydroxymethyl)pyrrolidin-1-yl)pyrrolo[2,1-f][1,2,4]triazin-4-yl)amino)-1H-imidazol-1-yl)phenyl)ethanone] |
| < 0.1 µM | OC[C@@H]1CCCN1c1nc(Nc2cn(-c3ccc(O)cc3)cn2)c2cccn2n1 [Compound 48c, (S)-4-(4-((2-(2-(hydroxymethyl)pyrrolidin-1-yl)pyrrolo[2,1-f][1,2,4]triazin-4-yl)amino)-1H-imidazol-1-yl)phenol] |
| < 0.1 µM | OC[C@@H]1CCCN1c1nc(Nc2cn(-c3ccc(Cl)cc3)cn2)c2cccn2n1 [Compound 49c, (S)-(1-(4-((1-(4-chlorophenyl)-1H-imidazol-4-yl)amino)pyrrolo[2,1-f][1,2,4]triazin-2-yl)pyrrolidin-2-yl)methanol] |
| < 0.1 µM | OC[C@@H]1CCCN1c1nc(Nc2cn(C3CCCC3)cn2)c2cccn2n1 [Compound 50c, (S)-(1-(4-((1-cyclopentyl-1H-imidazol-4-yl)amino)pyrrolo[2,1-f][1,2,4]triazin-2-yl)pyrrolidin-2-yl)methanol] |
| 0.1 to 1 µM | COc1cc(F)c(CC(=O)N2CCN(c3nc(Nc4cn(C)cn4)c4cccn4n3)CC2)c(F)c1 [Compound 51a, 2-(2,6-difluoro-4-methoxyphenyl)-1-(4-(4-((1-methyl-1H-imidazol-4-yl)amino)pyrrolo[2,1-f][1,2,4]triazin-2-yl)piperazin-1-yl)ethanone] |
| 0.1 to 1 µM | COc1cc(F)c(CC(=O)N2CCN(c3nc(Nc4cn(-c5ccccc5)cn4)c4cccn4n3)CC2)c(F)c1 [Compound 52a, 2-(2,6-difluoro-4-methoxyphenyl)-1-(4-(4-((1-phenyl-1H-imidazol-4-yl)amino)pyrrolo[2,1-f][1,2,4]triazin-2-yl)piperazin-1-yl)ethanone] |
| 0.1 to 1 µM | Cn1cnc(Nc2nc(N3CCN(C(=O)Cc4ccccc4)CC3)nn3cccc23)c1 [Compound 53b, 1-(4-(4-((1-methyl-1H-imidazol-4-yl)amino)pyrrolo[2,1-f][1,2,4]triazin-2-yl)piperazin-1-yl)-2-phenylethanone] |
| < 0.1 µM | CC(C)(C)OC(=O)N1CCN(c2nc(Nc3cn(-c4ccccc4)cn3)c3sccc3n2)CC1 [Compound 54a, tert-butyl 4-(4-((1-phenyl-1H-imidazol-4-yl)amino)thieno[3,2-d]pyrimidin-2-yl)piperazine-1-carboxylate] |

| IC50 | SMILES |
| --- | --- |
| < 0.1 µM | COc1ccc(-n2cnc(Nc3nc(N4CCC[C@H]4CO)nn4cccc34)c2)cc1 [Compound 55c, (S)-(1-(4-((1-(4-methoxyphenyl)-1H-imidazol-4-yl)amino)pyrrolo[2,1-f][1,2,4]triazin-2-yl)pyrrolidin-2-yl)methanol] |
| < 0.1 µM | COc1cccc(-n2cnc(Nc3nc(N4CCC[C@H]4CO)nn4cccc34)c2)c1 [Compound 56c, (S)-(1-(4-((1-(3-methoxyphenyl)-1H-imidazol-4-yl)amino)pyrrolo[2,1-f][1,2,4]triazin-2-yl)pyrrolidin-2-yl)methanol] |
| < 0.1 µM | COc1cc(-n2cnc(Nc3nc(N4CCC[C@H]4CO)nn4cccc34)c2)cc(OC)c1OC [Compound 57c, (S)-(1-(4-((1-(3,4,5-trimethoxyphenyl)-1H-imidazol-4-yl)amino)pyrrolo[2,1-f][1,2,4]triazin-2-yl)pyrrolidin-2-yl)methanol] |
| < 0.1 µM | OC[C@@H]1CCCN1c1nc(Nc2cn(-c3ccc(F)cc3)cn2)c2sccc2n1 [Compound 58b, (S)-(1-(4-((1-(4-fluorophenyl)-1H-imidazol-4-yl)amino)thieno[3,2-d]pyrimidin-2-yl)pyrrolidin-2-yl)methanol] |
| 0.1 to 1 µM | N#CC1CC(n2cnc(Nc3nc(N4CCCC4c4ccccn4)nn4cccc34)c2)C1 (stereo not shown) [Compound 59c, 3-(4-((2-(2-(pyridin-2-yl)pyrrolidin-1-yl)pyrrolo[2,1-f][1,2,4]triazin-4-yl)amino)-1H-imidazol-1-yl)cyclobutanecarbonitrile] |
| < 0.1 µM | OC[C@@H]1CCCN1c1nc(Nc2cn(-c3ccc(F)cc3)cn2)c2ccsc2n1 [Compound 60b, (S)-(1-(4-((1-(4-fluorophenyl)-1H-imidazol-4-yl)amino)thieno[2,3-d]pyrimidin-2-yl)pyrrolidin-2-yl)methanol] |
| < 0.1 µM | CC(C)(C)CC(=O)N1CCN(c2nc(Nc3cn(-c4ccccc4)cn3)c3ccsc3n2)CC1 [Compound 61b, 3,3-dimethyl-1-(4-(4-((1-phenyl-1H-imidazol-4-yl)amino)thieno[2,3-d]pyrimidin-2-yl)piperazin-1-yl)butan-1-one] |
| 0.1 to 1 µM | CCN(CCO)c1nc(Nc2cn(-c3ccccc3)cn2)c2ccsc2n1 [Compound 62b, 2-(ethyl(4-(1-phenyl-1H-imidazol-4-ylamino)thieno[2,3-d]pyrimidin-2-yl)amino)ethanol] |
| < 0.1 µM | c1ccc([C@@H]2CCCN2c2nc(Nc3cn(C4CCC4)cn3)c3cccn3n2)cc1 [Compound 63a, (S)—N-(1-cyclobutyl-1H-imidazol-4-yl)-2-(2-phenylpyrrolidin-1-yl)pyrrolo[2,1-f][1,2,4]triazin-4-amine] |
| < 0.1 µM | c1ccc([C@@H]2CCCN2c2nc(Nc3cn(C4CCC4)cn3)c3cccn3n2)nc1 [Compound 64a, (S)—N-(1-cyclobutyl-1H-imidazol-4-yl)-2-(2-(pyridin-2-yl)pyrrolidin-1-yl)pyrrolo[2,1-f][1,2,4]triazin-4-amine] |
| 0.1 to 1 µM | OC[C@@H]1CCCN1c1nc(Nc2cn(-c3ccc4cc[nH]c4c3)cn2)c2cccn2n1 [Compound 65c, (S)-(1-(4-((1-(1H-indol-6-yl)-1H-imidazol-4-yl)amino)pyrrolo[2,1-f][1,2,4]triazin-2-yl)pyrrolidin-2-yl)methanol] |
| < 0.1 µM | OC[C@@H]1CCCN1c1nc(Nc2cn(-c3ccccn3)cn2)c2cccn2n1 [Compound 66c, (S)-(1-(4-((1-(pyridin-2-yl)-1H-imidazol-4-yl)amino)pyrrolo[2,1-f][1,2,4]triazin-2-yl)pyrrolidin-2-yl)methanol] |
| < 0.1 µM | OC[C@@H]1CCCN1c1nc(Nc2cn(-c3ccc4[nH]ccc4c3)cn2)c2cccn2n1 [Compound 67c, (S)-(1-(4-((1-(1H-indol-5-yl)-1H-imidazol-4-yl)amino)pyrrolo[2,1-f][1,2,4]triazin-2-yl)pyrrolidin-2-yl)methanol] |
| < 0.1 µM | N#CC1CC(n2cnc(Nc3nc(N4CCC[C@H]4CO)nn4cccc34)c2)C1 (stereo partly drawn) [Compound 68a, (S)-3-(4-((2-(2-(hydroxymethyl)pyrrolidin-1-yl)pyrrolo[2,1-f][1,2,4]triazin-4-yl)amino)-1H-imidazol-1-yl)cyclobutanecarbonitrile] |
| < 0.1 µM | c1ccc(C2CCCN2c2nc(Nc3cn(C4CCCC4)cn3)c3cccn3n2)nc1 (stereo not shown) [Compound 69a, N-(1-cyclopentyl-1H-imidazol-4-yl)-2-(2-(pyridin-2-yl)pyrrolidin-1-yl)pyrrolo[2,1-f][1,2,4]triazin-4-amine] |
| < 0.1 µM | OCc1cc2c(Nc3cn(-c4ccccc4)cn3)nc(N3CCC[C@H]3CO)nc2s1 [Compound 70f, (S)-(1-(6-(hydroxymethyl)-4-((1-phenyl-1H-imidazol-4-yl)amino)thieno[2,3-d]pyrimidin-2-yl)pyrrolidin-2-yl)methanol] |
| < 0.1 µM | OC[C@@H]1CCCN1c1nc(Nc2cn(-c3cc[nH]n3)cn2)c2cccn2n1 [Compound 71c, (S)-(1-(4-((1-(1H-pyrazol-3-yl)-1H-imidazol-4-yl)amino)pyrrolo[2,1-f][1,2,4]triazin-2-yl)pyrrolidin-2-yl)methanol] |

Source: US11661426B2, “Imidazole-containing inhibitors of ALK2 kinase” (BioCryst Pharmaceuticals, Inc., priority 2017, dated 2023)
